Assay results from ChEMBL document CHEMBL1159212, “Microbial metabolites of ophiobolin A and antimicrobial evaluation of ophiobolins” (1995).
≈ marks a conversion by molar mass, not a printed value. Calls of active or inactive are those of the source. No cut-off for these calls is given here.

What was measured:
Staphylococcus aureus = assay: Antibacterial activity against Staphylococcus aureus by agar-well diffusion assay; assay type: functional
Candida albicans = assay: Antifungal activity against Candida albicans by agar-well diffusion assay; assay type: functional; conditions: for MIC: Candida albicans
[1] = test system: Mycobacterium intracellulare; assay: Antibacterial activity against Mycobacterium intercellulare by agar-well diffusion assay; assay type: functional
[2] = test system: Trichophyton mentagrophytes; assay: Antifungal activity against Trichophyton mentagrophytes by agar-well diffusion assay; assay type: functional; conditions: for MIC: Trichophyton mentagrophytes
Escherichia coli = assay: Antibacterial activity against Escherichia coli by agar-well diffusion assay; assay type: functional, organism-based
Cryptococcus neoformans = assay: Antifungal activity against Cryptococcus neoformans by agar-well diffusion assay; assay type: functional
Yarrowia deformans = assay: Antifungal activity against Torulopsis petrophilum by agar-well diffusion assay; assay type: functional
Aspergillus flavus = assay: Antifungal activity against Aspergillus flavus by agar-well diffusion assay; assay type: functional
Candida = assay: Antifungal activity against Torulopsis cremoris by agar-well diffusion assay; assay type: functional

Structure (SMILES)	Activity (Staphylococcus aureus)	Activity (Candida albicans)	Activity [1]	inhibition zone (IZ) [2]	Activity (Escherichia coli)	inhibition zone (IZ) (Cryptococcus neoformans)	inhibition zone (IZ) (Staphylococcus aureus)	inhibition zone (IZ) [1] [mm]	MIC (Yarrowia deformans) [µg/mL]	MIC (Candida albicans) [µg/mL]	MIC [2] [µg/mL]	MIC (Aspergillus flavus) [µg/mL]	MIC (Candida) [µg/mL]	inhibition zone (IZ) (Candida albicans) [mm]	inhibition zone (IZ) (Escherichia coli)
CC(C)=CCC[C@H](C)[C@@]1(O)CC[C@]2(C)C[C@H]3[C@H]4/C(=C\C[C@H]21)C(=O)O[C@H]4C[C@@]3(C)O [OPHIOBOLIN B LACTONE]	inactive	inactive	inactive	7 mm	inactive	1 mm	–	–	–	–	–	–	–	–	–
CC(C)=C[C@H]1C[C@H](C)[C@]2(CC[C@]3(C)C[C@H]4[C@@H]5/C(=C\C[C@H]32)C(=O)OC5(O)C[C@@]4(C)O)O1 (stereo partly specified)	–	inactive	inactive	<=7 mm	inactive	<=1 mm	>12 mm	–	–	–	–	–	–	–	–
CC(C)=C[C@H]1C[C@H](C)[C@]2(CC[C@]3(C)C[C@H]4[C@H]5/C(=C\C[C@H]32)C(=O)O[C@H]5C[C@@]4(C)O)O1 [OPHIOBOLIN A LACTONE]	inactive	inactive	–	7 mm	inactive	1 mm	–	3	–	–	–	–	–	–	–
CC(C)=CCC[C@H](C)[C@@]1(O)CC[C@]2(C)C[C@H]3[C@H](C(=O)C[C@@]3(C)O)/C(C=O)=C\C[C@H]21 [OPHIOBOLIN B]	–	inactive	inactive	7 mm	inactive	<=1 mm	3 mm	–	–	–	–	–	–	–	–
C[C@@H]1[C@H](O)[C@@H](C)/C=C/C=C/C=C/C=C/C=C/C=C/C=C/[C@H](O[C@@H]2O[C@H](C)[C@@H](O)[C@H](N)[C@@H]2O)C[C@@H]2O[C@](O)(C[C@@H](O)C[C@@H](O)[C@H](O)CC[C@@H](O)C[C@@H](O)CC(=O)O[C@H]1C)C[C@H](O)[C@H]2C(=O)O [AMPHOTERICIN B]	–	–	–	–	–	–	–	–	0.2 (≈ 0.216 µM)	0.78 (≈ 0.844 µM)	0.78 (≈ 0.844 µM)	3.12 (≈ 3.38 µM)	3.12 (≈ 3.38 µM)	–	–
CC(C)=C[C@H]1C[C@H](C)[C@]2(CC[C@]3(C)C[C@@H]4C(C)=CC(=O)[C@H]4/C(CO)=C\C[C@H]32)O1 [OPHIOBOLIN I]	inactive	inactive	–	7 mm	inactive	1 mm	–	3	–	–	–	–	–	–	–
CC(C)=C[C@H]1C[C@H](C)[C@]2(CC[C@]3(C)C[C@H]4[C@H]5/C(=C\C[C@H]32)C(=O)OC5(O)C[C@@]4(C)O)O1 (stereo partly specified) [OPHIOBOLIN L]	–	–	–	–	–	3 mm	inactive	3	–	–	–	–	–	1	inactive
CC(C)=C[C@H]1C[C@H](C)[C@]2(CC[C@]3(C)C[C@H]4[C@H](C(=O)C[C@@]4(C)O)/C(C=O)=C\C[C@H]32)O1 [OPHIOBOLIN A]	–	–	–	>12 mm	inactive	3 mm	7 mm	3	1.56 (≈ 3.89 µM)	125 (≈ 312 µM)	12.5 (≈ 31.2 µM)	25 (≈ 62.4 µM)	0.2 (≈ 0.499 µM)	7	–
